Tests used:
[1] = Inhibition of GABARAP (unknown origin) expressed in Escherichia coli BL21(DE3) incubated for 45 mins by AlphaScreen assay; parameters: species or system Homo sapiens
[2] = target: T1, Microtubule-associated protein 1 light chain 3 beta (Homo sapiens, UniProt Q9GZQ8); assay: Inhibition of LC3B (unknown origin) expressed in Escherichia coli BL21(DE3) incubated for 45 mins by AlphaScreen assay
[3] = target: T1, Microtubule-associated protein 1 light chain 3 beta; assay: Binding affinity against recombinant LC3B (unknown origin) assessed as dissociation constant by small molecule microarray with a scanning oblique-incidence reflectivity difference microscopic analysis
[4] = target: T1, Microtubule-associated protein 1 light chain 3 beta; assay: Binding affinity against recombinant LC3B (unknown origin) assessed as dissociation constant by surface plasmon resonance assay
[5] = target: T1, Microtubule-associated protein 1 light chain 3 beta; assay: Binding affinity against recombinant LC3B (unknown origin) assessed as dissociation constant by 2D-NMR titration assay
Bacteria = assay: Inhibition of beta-lactamase (unknown origin) at up to 25 uM incubated for 15 mins by beta-lactamase assay
[6] = Binding affinity to GABARAP (unknown origin) assessed as dissociation constant by biolayer interferometry analysis; parameters: species or system Homo sapiens

Row | Compound | IC50 [1] [µM] | IC50 [2] [µM] | also measured
1 | O=C1Nc2ccc(I)cc2/C1=C\c1cnc[nH]1 | > 70 |  | 
2 | O=C1Nc2ccc(I)cc2/C1=C\c1ccc(-c2ccc(C(F)(F)F)cc2)cc1 | > 1 | > 1 | 
3 | O=C1Nc2ccc(Br)cc2/C1=C\c1cc(Br)c(O)c(Br)c1 | 13 |  | 
4 | COc1ccc(/C=C2/C(=O)Nc3ccc(I)cc32)cc1 | > 11 | > 11 | 
5 | O=C1Nc2ccc(I)cc2/C1=C\c1cc(Br)c(O)c(Br)c1 | 9.1 | 4.4 | Kd [3]: 0.468 µM; Kd [4]: 8.9 µM; Kd [5]: > 200 µM; inhibition (Bacteria): No effect
6 | O=C1Nc2cc(Cl)c(Cl)cc2/C1=C\c1cc(Br)c(O)c(Br)c1 | > 25 |  | 
7 | COC(=O)c1ccc2c(c1)NC(=O)/C2=C/c1cc(Br)c(O)c(Br)c1 | 5.7 |  | 
8 | O=C1Nc2ccc(I)cc2/C1=C\c1ccccc1 | > 25 |  | 
9 | O=C1Nc2ccc(I)cc2/C1=C\c1cc(Br)cc(Br)c1 | > 6.4 |  | 
10 | O=C1Nc2ccc(I)cc2/C1=C\c1cccc2nccn12 | > 12.5 | > 12.5 | 
11 | O=C1Nc2cc(I)ccc2/C1=C\c1cc(Br)c(O)c(Br)c1 | 12 |  | 
12 | O=C1Nc2ccc(I)cc2/C1=C\c1ccc(C(=O)O)cc1 | 75 | 119 | 
13 | CC(C)C[C@H](NC(=O)[C@H](Cc1c[nH]cn1)NC(=O)[C@H](CCC(=O)O)NC(=O)[C@H](Cc1c[nH]c2ccccc12)NC(=O)[C@@H](NC(=O)[C@H](Cc1ccc(O)cc1)NC(=O)[C@@H](NC(=O)[C@H](C)NC(=O)[C@H](CC(=O)O)NC(=O)CCCC[C@@H]1SC[C@@H]2NC(=O)N[C@@H]21)[C@@H](C)O)[C@@H](C)O)C(=O)N[C@@H](C)C(=O)N[C@@H](Cc1c[nH]c2ccccc12)C(=O)N1CCC[C@H]1C(=O)O | 0.055 |  | Kd [6]: 0.055 µM

Further lines, with some results ahead:

Row | IC50 [1] [µM] | IC50 [2] [µM] | Compound | also measured
14 | > 14 |  | Cc1ncsc1/C=C1/C(=O)Nc2ccc(I)cc21 | 
15 | 24 |  | Cc1ccc2c(c1)NC(=O)/C2=C/c1cc(Br)c(O)c(Br)c1 | 
16 | > 1.8 | > 1.8 | O=C1Nc2ccc(I)cc2/C1=C\c1ccc[nH]1 | 
17 | > 10 | > 10 | O=C1Nc2ccc(I)cc2/C1=C\c1ccc(O)cc1 | 
18 | > 3.5 | > 3.5 | O=C1Nc2ccc(I)cc2/C1=C\c1cncs1 | 
19 | 15 |  | O=C1Nc2ccc(I)cc2/C1=C\c1cc(Br)cc(Br)c1O | 
20 | 175 | 176 | O=C1Nc2ccccc2/C1=C\c1cc(Br)c(O)c(Br)c1 | 
